Measurements published in patent US20210071138A1, “GAMETOGENESIS” (United Kingdom Research and Innovation, priority 2017, published 2021).

What was measured:
[1] = system: germline reprogramming responsive (GRR) genes; assay: RNA-Seq differential expression of GRR genes in mESCs; type: cell-based, mouse
Protocol: J1 (wild type), Dnmt-TKO^23 and Tet1-KO Dnmt-TKO mESCs were cultured in FCS/LIF medium without feeders on 0.1% gelatin. FCS/LIF medium consists of GMEM (Gibco) supplemented with 10% FCS, 0.1 mM MEM nonessential amino acids, 2 mM 1-glutamine, 1 mM sodium pyruvate, 0.1 mM 2-mercaptoethanol and mouse LIF (ESGRO, Millipore). For inhibitor experiments, mESCs were plated at a density of 1.5×10^4/cm^2 and left overnight. The next morning medium was exchanged for FCS/LIF medium containing either 50 μM PRC1 inhibitor PRT4165 (Ismail et al., 2013) or DMSO control and cells pelleted at the indicated time for analysis. […]
For study of Tet1-KO and Tet1-WT PGCs, Illumina and Smart-seq adapters from the sequencing reads were first trimmed using Trimmomatic. […] RNA-Seq reads were aligned to the mouse genome (mm9, NCBI build 37) with Bowtie (version 0.12.8) and Tophat (version 2.0.2) with options -N 2 --b2-very-sensitive --b2-L 25. […] Read counts per annotated gene were computed using HTSeq (version 0.5.3p9) and expression level of each gene was quantified by computing the number of fragments detected per kilobase per million of reads (FPKM) using custom R script. […] For determining gene expression levels in wild type and Dnmt1-conditional knockout and matched wild type E10.5 PGCs, raw RNA-Seq reads were downloaded from GSE74938^24 and processed as above. […]

PRC1 = target: T1, PRC1 (Mus musculus, UniProt Q9CQJ4); assay: Western blot of H2Aub in mESCs cultured with PRC1 inhibitor; type: cell-based; settings: 50 μM PRT4165, after 6h of culture, vs DMSO control (FIG. 15b)
T1 construct: endogenous in cells; host or cells: J1 (wild type) and Dnmt-TKO mouse embryonic stem cells
T1 sequence (Q9CQJ4 1-336): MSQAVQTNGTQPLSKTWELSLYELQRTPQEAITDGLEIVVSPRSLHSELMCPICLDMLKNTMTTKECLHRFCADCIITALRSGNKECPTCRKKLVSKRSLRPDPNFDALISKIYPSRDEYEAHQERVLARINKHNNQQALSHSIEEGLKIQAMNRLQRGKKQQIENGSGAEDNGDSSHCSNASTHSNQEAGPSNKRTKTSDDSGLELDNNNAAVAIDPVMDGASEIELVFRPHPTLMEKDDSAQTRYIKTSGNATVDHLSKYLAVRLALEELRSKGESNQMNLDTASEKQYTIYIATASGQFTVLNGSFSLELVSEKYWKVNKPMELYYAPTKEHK
Protocol: J1 (wild type), Dnmt-TKO^23 and Tet1-KO Dnmt-TKO mESCs were cultured in FCS/LIF medium without feeders on 0.1% gelatin. FCS/LIF medium consists of GMEM (Gibco) supplemented with 10% FCS, 0.1 mM MEM nonessential amino acids, 2 mM 1-glutamine, 1 mM sodium pyruvate, 0.1 mM 2-mercaptoethanol and mouse LIF (ESGRO, Millipore). For inhibitor experiments, mESCs were plated at a density of 1.5×10^4/cm^2 and left overnight. The next morning medium was exchanged for FCS/LIF medium containing either 50 μM PRC1 inhibitor PRT4165 (Ismail et al., 2013) or DMSO control and cells pelleted at the indicated time for analysis.
mESCs were lysed by sonication in RIPA buffer (150 mM sodium chloride, 1.0% Triton X-100, 0.5% sodium deoxychlorate, 0.1% sodium dodecylsulfate, 50 mM Tris pH 8.0) and protease-inhibitor cocktail (Roche, 11 697 498 001). Cell debris were removed by centrifugation at 14000 g 5 min 4° C. Protein was quantified using the BCA protein assay (Thermo, 23227). 2 μg (for H2A and H2Aub) or 20 μg (for Tet1) of each protein extract was loaded onto an 15% or 8% SDS polyacrylamide gel and transferred to a PVDF membrane after electrophoresis. Membranes were blocked with 5% BSA for 1 hour and then incubated overnight at 4° C. with primary antibodies at the following dilutions: anti-H2A antibody (Abcam, 18255) 1:2000; anti-ubiquityl H2A antibody (Cell Signalling 8240) 1:2000; anti-Tet1 antibody [N1] […]

inhibition of PRC1-mediated H2A ubiquitination (PRC1): significant inhibition
SMILES: O=C1C(=Cc2cccnc2)C(=O)c2ccccc21 [PRT4165]
number of GRR genes activated (of 45) upon dual inhibition of 5mC/PRC1 repression ([1]; Dnmt-TKO mESCs + 6h PRT4165 (50 μM) vs wild type + 6h DMSO (FIG. 4d, 15c)): 33 GRR genes
number of GRR genes activated (of 45) upon sole inhibition of PRC1 repression ([1]; wild type mESCs + 6h PRT4165 (50 μM) vs wild type + 6h DMSO (FIG. 4d, 15c)): 10 genes
